Data as given in US8778985B2, “Inhibiting amyloid-beta peptide/rage interaction at the blood-brain barrier” (The University of Rochester, priority 2006, dated 2014).

What was measured:
[1] = test system: APPsw+/− mice; assay: Resting CBF by laser-doppler flowmetry, acute FPS2 treatment of APPsw+/− mice; format: in vivo; conditions: 1 mg/kg intravenous bolus, 7-9 months old mice
Protocol: Cerebral blood flow changes expressed as a percentage of baseline recorded over a 90 min period in mice administered FPS2 (filled triangle) or vehicle (filled square). FPS2 (1 mg/kg) was administered intravenously (arrow) as a bolus in 7-9 months old mice. Values are means±s.e.m, n=3 per group.
(§1) APPsw^+/− mice were treated with FPS2 (1 mg/kg) or with vehicle daily by intraperitoneal injection for two months starting at 8 months old. At the end of the treatment period functional changes in cerebral blood flow (CBF) to brain activation, and memory tests were determined. Brain and plasma Aβ levels were also determined in FPS2 and vehicle treated mice. […]
Compounds were synthesized in parallel using semiautomated chemical reactions. […] Purity was assessed by reverse-phase gradient HPLC. […] After two months of treatment, (i) the cerebral blood flow response to brain activation (whisker stimulation) was measured and (ii) behavioral tests including operant learning, novel object location (NOL), and novel object recognition (NOR) were performed. After these functional tests, the mice were sacrificed and their brains analyzed for Aβ40, Aβ42, and amyloid levels. • CBF response to brain activation. The CBF response to vibrissal stimulation in anesthetized APPsw^+/− mice was measured by using laser-doppler flowmetry (Transonic Systems, BLF 21 D). […]

[2] = test system: APPsw+/− mice; assay: CBF response to brain activation (whisker stimulation), chronic FPS2 treatment of APPsw+/− mice; format: in vivo; conditions: 1 mg/kg per day i.p. for two months from 8 months of age
Protocol: (A) Percent increase in cerebral blood flow (CBF) in response to brain activation in mice treated with vehicle (open bar) or FPS2 (closed bar). (B-C) novel object location (B) and novel object recognition (C) expressed as percent exploratory preference in APPsw^+/− mice treated with vehicle (open bar) or FPS2 (closed bar). FPS2 (1 mg/kg per day) was intraperitoneally administered for two months beginning at the age of 8 months old mice. Values are means±s.e.m, n=5-6 per group.
as §1
Compounds were synthesized in parallel using semiautomated chemical reactions. […] Purity was assessed by reverse-phase gradient HPLC. […] After two months of treatment, (i) the cerebral blood flow response to brain activation (whisker stimulation) was measured and (ii) behavioral tests including operant learning, novel object location (NOL), and novel object recognition (NOR) were performed. After these functional tests, the mice were sacrificed and their brains analyzed for Aβ40, Aβ42, and amyloid levels. • CBF response to brain activation. […]

CC(CC(=O)NCCCN(C(=O)c1cc([N+](=O)[O-])cc([N+](=O)[O-])c1)c1ccccc1)CC(C)(C)C (stereo not drawn) [FPS2, 3,5-dinitro-N-phenyl-N-[3-[(3,5,5-trimethyl-1-oxohexyl)amino]propyl]-(9Cl)-benzamide]
time of peak of resting CBF increase [1]: 25 to 30 min
transient increase of resting CBF [1]: about 35%
increase of CBF during brain activation compared to vehicle [2]: about 50%
